From ChEMBL document CHEMBL5346927, “Discovery of a novel 1H-pyrazole- [3,4-b] pyridine-based lysine demethylase 5B inhibitor with potential anti-prostate cancer activity that perturbs the phosphoinositide 3-kinase/AKT pathway” (Eur J Med Chem, 2023)
Calls of active or inactive are those of the source. The calls are words filed in the database; no cut-off is given here.

Assays:
PC-3 [1] = experiment: Induction of apoptosis in human PC-3 cells assessed as necrotic cells at 2.5 uM incubated for 72 hrs by Annexin V-FITC/PI staining based flow cytometric analysis (reference value: 5.01%); assay type: functional
[2] = MRT (0 to t) in ICR mouse at 5 mg/kg, iv measured at 0.083 to 24 hrs by LC-MS analysis; assay type: ADME, organism-based; details: in vivo, time 0.083-24 hrs
PC-3 [3] = experiment: Inhibition of PI3K/AKT pathway in human PC-3 cells assessed as decrease in AKT phosphorylation at Thr308 residue at 2.5 to 10 uM by Western blot analysis; assay type: cell-based; details: dose 2.5-10 µM
PC-3 [4] = experiment: Inhibition of PI3K/AKT pathway in human PC-3 cells assessed as decrease in P110alpha level at 10 uM by Western blot analysis; assay type: cell-based
PC-3 [5] = experiment: Antitumor activity against human PC-3 cells xenografted in BALB/C nude mice assessed as decrease in tumor weight at 25 to 50 mg/kg, IG administered for 25 days; assay type: functional, organism-based; details: dose 25-50 mg/kg, time 25.0 day
PC-3 [6] = experiment: Antitumor activity against human PC-3 cells xenografted in BALB/C nude mice assessed as decrease in tumor volume at 50 mg/kg, IG measured after 13 days; assay type: functional, organism-based; details: time 13.0 day
PC-3 [7] = experiment: Inhibition of cell migration in human PC-3 cells at 5 to 10 uM by wound scratch assay; assay type: functional, cell-based; details: dose 5-10 µM, time <= 24.0 hrs, TDE = time-dependent effect
[8] = Acute toxicity in Kunming mouse assessed as effect on lung at 2 g/Kg, IG measured after 2 weeks by H&E staining based analysis; assay type: tissue-based; details: in vivo, po, 2000 mg/kg, 336 h
PC-3 [9] = experiment: Induction of apoptosis in human PC-3 cells assessed as late apoptotic cells at 10 uM incubated for 72 hrs by Annexin V-FITC/PI staining based flow cytometric analysis (reference value: 1.05%); assay type: functional
[10] = AUC (0 to t) in ICR mouse at 25 mg/kg, IG measured at 0.083 to 24 hrs by LC-MS analysis; assay type: ADME, organism-based; design: dose 25 mg/kg, time upper 24 hrs, time lower 0.083 hrs, route ig; details: in vivo, po
PC-3 [11] = experiment: Induction of cell cycle arrest in human PC-3 cells assessed as increase in G2/M phase cell ratio at 5 uM incubated for 24 hrs by PI/RNase A staining based flow cytometric analysis (reference value: 16.07%); assay type: functional
PC-3 [12] = experiment: Antitumor activity against human PC-3 cells xenografted in BALB/C nude mice assessed as decrease in tumor volume at 25 to 50 mg/kg, IG administered for 25 days; assay type: functional, organism-based; details: dose 25-50 mg/kg, time 25.0 day
[13] = target: T1, Lysine-specific demethylase 5B (Homo sapiens, UniProt Q9UGL1); experiment: Inhibition of KDM5B (unknown origin)
T1 sequence (Q9UGL1 whole entry): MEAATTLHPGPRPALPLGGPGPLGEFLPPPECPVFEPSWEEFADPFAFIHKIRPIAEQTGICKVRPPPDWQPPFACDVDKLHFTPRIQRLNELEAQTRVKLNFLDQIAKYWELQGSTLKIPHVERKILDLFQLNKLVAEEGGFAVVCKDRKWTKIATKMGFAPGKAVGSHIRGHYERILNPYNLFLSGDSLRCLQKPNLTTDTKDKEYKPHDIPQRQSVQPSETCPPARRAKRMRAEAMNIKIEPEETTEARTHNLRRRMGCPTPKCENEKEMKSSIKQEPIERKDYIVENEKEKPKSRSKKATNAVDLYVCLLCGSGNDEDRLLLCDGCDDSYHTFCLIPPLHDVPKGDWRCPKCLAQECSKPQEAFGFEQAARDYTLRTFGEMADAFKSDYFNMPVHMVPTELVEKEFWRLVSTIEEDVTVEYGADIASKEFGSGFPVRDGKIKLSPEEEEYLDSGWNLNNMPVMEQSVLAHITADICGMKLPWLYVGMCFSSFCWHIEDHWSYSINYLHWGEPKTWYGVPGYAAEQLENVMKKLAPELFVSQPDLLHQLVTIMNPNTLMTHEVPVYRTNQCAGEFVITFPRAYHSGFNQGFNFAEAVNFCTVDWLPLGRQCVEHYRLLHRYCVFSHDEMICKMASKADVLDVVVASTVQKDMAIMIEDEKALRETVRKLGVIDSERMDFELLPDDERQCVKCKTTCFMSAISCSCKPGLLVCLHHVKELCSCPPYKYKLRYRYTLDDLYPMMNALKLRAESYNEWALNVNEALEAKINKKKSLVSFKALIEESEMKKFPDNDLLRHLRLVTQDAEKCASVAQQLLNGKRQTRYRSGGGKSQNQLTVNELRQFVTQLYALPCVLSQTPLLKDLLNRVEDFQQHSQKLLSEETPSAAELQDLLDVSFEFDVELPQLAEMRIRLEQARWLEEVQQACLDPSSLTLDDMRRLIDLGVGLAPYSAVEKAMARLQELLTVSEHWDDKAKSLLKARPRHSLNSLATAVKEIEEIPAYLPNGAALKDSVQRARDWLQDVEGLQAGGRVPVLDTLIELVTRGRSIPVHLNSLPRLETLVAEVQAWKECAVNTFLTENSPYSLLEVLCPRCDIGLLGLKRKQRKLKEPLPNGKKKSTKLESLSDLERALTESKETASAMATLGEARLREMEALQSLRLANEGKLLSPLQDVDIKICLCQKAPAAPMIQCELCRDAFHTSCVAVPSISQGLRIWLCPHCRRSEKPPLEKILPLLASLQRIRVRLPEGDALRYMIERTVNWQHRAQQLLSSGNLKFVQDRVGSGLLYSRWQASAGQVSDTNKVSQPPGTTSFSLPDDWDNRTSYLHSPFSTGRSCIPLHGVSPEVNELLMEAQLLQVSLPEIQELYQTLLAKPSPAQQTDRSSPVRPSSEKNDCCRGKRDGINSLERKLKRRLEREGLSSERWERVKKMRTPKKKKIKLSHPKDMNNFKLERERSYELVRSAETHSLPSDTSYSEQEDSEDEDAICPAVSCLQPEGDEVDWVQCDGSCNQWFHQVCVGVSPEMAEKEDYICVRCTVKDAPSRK

PC-3 [14] = experiment: Induction of apoptosis in human PC-3 cells assessed as viable cells at 10 uM incubated for 72 hrs by Annexin V-FITC/PI staining based flow cytometric analysis (reference value: 90.93%); assay type: functional; details: read-out: Activity
[15] = Acute toxicity in Kunming mouse assessed as effect on behavioral abnormalities at 2 g/Kg, IG measured after 2 weeks; details: in vivo, po, 2000 mg/kg, 336 h
[16] = target: T1, Lysine-specific demethylase 5B; experiment: Inhibition of KDM5B in human PC-3 cells assessed as H3K4me2 accumulation incubated for 72 hrs by Western blot analysis; assay type: cell-based
PC-3 [17] = experiment: Induction of apoptosis in human PC-3 cells assessed as late apoptotic cells at 5 uM incubated for 72 hrs by Annexin V-FITC/PI staining based flow cytometric analysis (reference value: 1.05%); assay type: functional
PC-3 [18] = experiment: Induction of apoptosis in human PC-3 cells assessed as late apoptotic cells at 2.5 uM incubated for 72 hrs by Annexin V-FITC/PI staining based flow cytometric analysis (reference value: 1.05%); assay type: functional
[19] = Acute toxicity in Kunming mouse assessed as effect on survival at 2 g/Kg, IG measured after 2 weeks; details: in vivo, po, 2000 mg/kg, 336 h
PC-3 [20] = experiment: Induction of apoptosis in human PC-3 cells assessed as viable cells at 5 uM incubated for 72 hrs by Annexin V-FITC/PI staining based flow cytometric analysis (reference value: 90.93%); assay type: functional; details: read-out: Activity
PC-3 [21] = experiment: Inhibition of PI3K/AKT pathway in human PC-3 cells assessed as decrease in P110alpha level at 2.5 to 5 uM by Western blot analysis; assay type: cell-based; details: dose 2.5-5 µM
PC-3 [22] = experiment: Induction of apoptosis in human PC-3 cells assessed as necrotic cells at 5 uM incubated for 72 hrs by Annexin V-FITC/PI staining based flow cytometric analysis (reference value: 5.01%); assay type: functional
[23] = Apparent volume of distribution in ICR mouse at 5 mg/kg, iv measured at 0.083 to 24 hrs by LC-MS analysis; assay type: ADME, organism-based; details: in vivo, time 0.083-24 hrs
[24] = Acute toxicity in Kunming mouse assessed as effect on heart at 2 g/Kg, IG measured after 2 weeks by H&E staining based analysis; assay type: tissue-based; details: in vivo, po, 2000 mg/kg, 336 h
[25] = Toxicity in BALB/C nude mouse xenografted with human PC-3 cells assessed as heart damage at 25 to 50 mg/kg, IG administered for 25 days by H&E staining based analysis; assay type: organism-based; details: in vivo, po, 600 h, dose 25-50 mg/kg, time 25 day
[26] = Toxicity in BALB/C nude mouse xenografted with human PC-3 cells assessed as kidney damage at 25 to 50 mg/kg, IG administered for 25 days by H&E staining based analysis; assay type: organism-based; details: in vivo, po, 600 h, dose 25-50 mg/kg, time 25 day
LNCaP [27] = experiment: Antiproliferative activity against human LNCaP cells assessed as inhibition of cell proliferation incubated for 72 hrs by MTT assay; assay type: functional, cell-based
[28] = Toxicity in BALB/C nude mouse xenografted with human PC-3 cells assessed as liver damage at 25 to 50 mg/kg, IG administered for 25 days by H&E staining based analysis; assay type: organism-based; details: in vivo, po, 600 h, dose 25-50 mg/kg, time 25 day
[29] = Acute toxicity in Kunming mouse assessed as effect on liver at 2 g/Kg, IG measured after 2 weeks by H&E staining based analysis; assay type: tissue-based; details: in vivo, po, 2000 mg/kg, 336 h
[30] = Tmax in ICR mouse at 5 mg/kg, iv measured at 0.083 to 24 hrs by LC-MS analysis; assay type: ADME, organism-based; details: in vivo, time 0.083-24 hrs
[31] = Toxicity in BALB/C nude mouse xenografted with human PC-3 cells assessed as spleen damage at 25 to 50 mg/kg, IG administered for 25 days by H&E staining based analysis; assay type: organism-based; details: in vivo, po, 600 h, dose 25-50 mg/kg, time 25 day
PC-3 [32] = experiment: Induction of apoptosis in human PC-3 cells assessed as early apoptotic cells at 5 uM incubated for 72 hrs by Annexin V-FITC/PI staining based flow cytometric analysis (reference value: 3.01%); assay type: functional
[33] = Toxicity in BALB/C nude mouse xenografted with human PC-3 cells assessed as indistinct prostate tube wall at 25 mg/kg, IG administered for 25 days by H&E staining based analysis; assay type: organism-based; details: in vivo, po, 600 h, time 25 day
[34] = target: T1, Lysine-specific demethylase 5B; experiment: Inhibition of KDM5B (unknown origin) at 10 uM relative to control
[35] = target: T1, Lysine-specific demethylase 5B; experiment: Inhibition of KDM5B in human PC-3 cells assessed as H3K4me1 accumulation incubated for 72 hrs by Western blot analysis; assay type: cell-based
LNCaP [36] = experiment: Inhibition of colony formation in human LNCaP cells incubated for 72 hrs by crystal violet staining based microplate reader analysis; assay type: functional, cell-based
PC-3 [37] = experiment: Induction of apoptosis in human PC-3 cells assessed as early apoptotic cells at 2.5 uM incubated for 72 hrs by Annexin V-FITC/PI staining based flow cytometric analysis (reference value: 3.01%); assay type: functional

CN1CCN(CCNC(=O)c2cc(-c3ccc4ccccc4c3)nc3c2cnn3-c2ccccc2)CC1
Activity (PC-3 [1]): 18.36% | MRT(t) [2]: 10.29 h | inhibition (PC-3 [3]): inactive | inhibition (PC-3 [4]): Active | Activity (PC-3 [5]): Active | Activity (PC-3 [6]): Active | inhibition (PC-3 [7]): Tde | Activity [8]: Non-Toxic | Activity (PC-3 [9]): 16.39% | AUCt [10]: 3024.33 ng·h/mL | Activity (PC-3 [11]): 27.47% | Activity (PC-3 [12]): Active | IC50 [13]: 0.025 µM | viability at 10 µM (PC-3 [14]): 58.8% | Activity [15]: Non-Toxic | inhibition [16]: Dose-Dependent Effect | Activity (PC-3 [17]): 7.54% | Activity (PC-3 [18]): 5.94% | Activity [19]: Non-Toxic | viability at 5 µM (PC-3 [20]): 73% | inhibition (PC-3 [21]): inactive | Activity (PC-3 [22]): 18.77% | Vz [23]: 19.51 L/kg | Activity [24]: Non-Toxic | Activity [25]: Non-Toxic | Activity [26]: Non-Toxic | IC50 (LNCaP [27]): 4.34 µM | Activity [28]: Non-Toxic | Activity [29]: Non-Toxic | Tmax [30]: 4.98 min | Activity [31]: Non-Toxic | Activity (PC-3 [32]): 0.64% | Activity [33]: Non-Toxic | inhibition [34]: 102% | inhibition [35]: Dose-Dependent Effect | inhibition (LNCaP [36]): Dose-Dependent Effect | Activity (PC-3 [37]): 0.7%
